The target in one test is T1, IKZF2 (Homo sapiens, UniProt Q96SW2+Q9UKS7).
T1 construct: expressed in transfected cells
As to the kind of experiment: HiBiT protein tagging assay, in vitro IKZF2 degradation (HEK293). It is filed as cell-based. The note with it: HEK293, 18-24 hr incubation, normalized to DMSO control; for Dmax: HEK293, HiBiT assay, read-out: IKZF2 Dmax (maximum degradation at the highest concentration tested); for DC50: HiBiT assay, read-out: IKZF2 EC50. As for the experimental part:
(§1) In vitro degradation of IKZF1 and IKZF2 was measured using HiBiT protein tagging and detection technology (Promega).
(§2) HiBiT technology (Promega) was used to develop the quantitative assays to measure the cellular IKZFs level by tagging an 11 amino acid HiBit peptides VSGWRLFKKIS (SEQ ID NO:1) to the protein of interest. Reporter plasmids were generated by fusing a linker sequence (GSSGGSSG; SEQ ID NO:2) followed by the HiBiT tag at the C terminus of IKZF1 and IKZF2. The fusion fragments were subsequently cloned into pcDNA5 pcDNA™5/FRT/TO plasmids (Thermo Fisher, cat #V652020) downstream of the Tetracycline operator. The resulting plasmids were co-transfected with pOG44 Flp-Recombinase Expression Vector (Thermo Fisher, cat #V600520) into Flp-In™ T-REx HEK293 line (Thermo Fisher, cat #R78077) and a stable cell pool was selected by adding 100 μg/ml of Hygromycin (Thermo Fisher, cat #10687010). The reporter cell enabled Tet-On inducible reporter expression from a single copy of the integrated gene.
(§3) On Day 1, Cells were grown to ˜80% confluency in TC medium (DMEM Glutamax (Gibco10569), 10% Tet free FBS (Takara 631106), and PenStrep Glutamin (Gibco 10378)) in tissue culture flasks. Doxycycline was then added to a final concentration of 1 μg/ml to induce reporter expression at 37° C. overnight.
(§4) On Day 2, 125 nL of serially-diluted solution of testing compounds were dispensed into 384-well white solid assay plates via ECHO acoustic liquid handler. Cells were lifted by 0.25% Trypsin (Gibco 25200) then pelleted by centrifugation (Beckman Avanti J-E) at 500×g for 5 min. Cell pellets were resuspended in TC medium at the concentration of 3e5/mL and 25 μL of cell suspension were added into each well of compound-spotted plates. The plates were returned to a 37° C. incubator overnight (18-24 hr).
(§5) On Day 3, assay plates were removed from the TC incubator and 25 μL of Nano-Glo lytic detection system (Promega, cat #N3030) was added to each well. Plates were incubated at r.t. for 3 min with shaking, and luminescence was read using an Envision reader (Perkin Elmer).
(§6) All raw data was normalized to DMSO control (final concentration: 0.5%) wells as POC and plotted out for EC50 and Dmax (Maximum degradation at the highest concentration tested in the assay).
In general terms: With HiBiT, luminescence reflects the tagged protein that the partner subunit can reach.

The next test has as its target T2, IKZF1 (Homo sapiens, UniProt Q13422+Q96SW2).
T2 construct: expressed in transfected cells
As to the kind of experiment: HiBiT protein tagging assay, in vitro IKZF1 degradation (HEK293). It is filed as cell-based. The note with it: HEK293, 18-24 hr incubation, normalized to DMSO control; for Dmax: read-out: IKZF1 Dmax (maximum degradation at the highest concentration tested); for DC50: read-out: IKZF1 EC50. As for the experimental part: as §1, §2, §3, §4, §5, §6

T1 sequence (Q9UKS7 1-500 isoform Q9UKS7-2): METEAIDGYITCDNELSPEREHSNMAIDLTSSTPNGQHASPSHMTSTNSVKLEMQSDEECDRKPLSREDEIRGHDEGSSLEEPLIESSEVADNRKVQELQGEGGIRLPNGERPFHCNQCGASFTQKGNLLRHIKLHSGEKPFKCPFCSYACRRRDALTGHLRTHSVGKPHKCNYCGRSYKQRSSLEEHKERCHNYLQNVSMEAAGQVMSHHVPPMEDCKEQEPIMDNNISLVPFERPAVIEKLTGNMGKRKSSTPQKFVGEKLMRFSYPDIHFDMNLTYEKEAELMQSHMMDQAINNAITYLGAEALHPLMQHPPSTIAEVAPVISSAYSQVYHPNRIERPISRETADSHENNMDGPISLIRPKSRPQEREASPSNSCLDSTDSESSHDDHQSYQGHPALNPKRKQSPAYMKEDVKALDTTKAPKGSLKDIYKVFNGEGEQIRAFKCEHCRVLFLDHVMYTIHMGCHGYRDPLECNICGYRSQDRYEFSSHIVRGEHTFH
T1 sequence (Q96SW2 whole entry): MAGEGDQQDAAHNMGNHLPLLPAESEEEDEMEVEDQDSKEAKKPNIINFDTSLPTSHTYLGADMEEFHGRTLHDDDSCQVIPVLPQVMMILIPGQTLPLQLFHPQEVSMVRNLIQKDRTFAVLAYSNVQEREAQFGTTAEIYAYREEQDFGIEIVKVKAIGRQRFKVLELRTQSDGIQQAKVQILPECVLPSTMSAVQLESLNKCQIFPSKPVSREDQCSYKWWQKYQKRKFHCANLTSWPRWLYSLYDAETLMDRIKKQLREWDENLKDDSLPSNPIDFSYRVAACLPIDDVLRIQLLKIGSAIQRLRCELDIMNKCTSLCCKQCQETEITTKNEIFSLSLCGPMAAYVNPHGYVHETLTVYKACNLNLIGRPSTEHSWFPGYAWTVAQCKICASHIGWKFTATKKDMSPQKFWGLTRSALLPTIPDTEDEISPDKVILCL
T1 sequence (Q16531 whole entry partner): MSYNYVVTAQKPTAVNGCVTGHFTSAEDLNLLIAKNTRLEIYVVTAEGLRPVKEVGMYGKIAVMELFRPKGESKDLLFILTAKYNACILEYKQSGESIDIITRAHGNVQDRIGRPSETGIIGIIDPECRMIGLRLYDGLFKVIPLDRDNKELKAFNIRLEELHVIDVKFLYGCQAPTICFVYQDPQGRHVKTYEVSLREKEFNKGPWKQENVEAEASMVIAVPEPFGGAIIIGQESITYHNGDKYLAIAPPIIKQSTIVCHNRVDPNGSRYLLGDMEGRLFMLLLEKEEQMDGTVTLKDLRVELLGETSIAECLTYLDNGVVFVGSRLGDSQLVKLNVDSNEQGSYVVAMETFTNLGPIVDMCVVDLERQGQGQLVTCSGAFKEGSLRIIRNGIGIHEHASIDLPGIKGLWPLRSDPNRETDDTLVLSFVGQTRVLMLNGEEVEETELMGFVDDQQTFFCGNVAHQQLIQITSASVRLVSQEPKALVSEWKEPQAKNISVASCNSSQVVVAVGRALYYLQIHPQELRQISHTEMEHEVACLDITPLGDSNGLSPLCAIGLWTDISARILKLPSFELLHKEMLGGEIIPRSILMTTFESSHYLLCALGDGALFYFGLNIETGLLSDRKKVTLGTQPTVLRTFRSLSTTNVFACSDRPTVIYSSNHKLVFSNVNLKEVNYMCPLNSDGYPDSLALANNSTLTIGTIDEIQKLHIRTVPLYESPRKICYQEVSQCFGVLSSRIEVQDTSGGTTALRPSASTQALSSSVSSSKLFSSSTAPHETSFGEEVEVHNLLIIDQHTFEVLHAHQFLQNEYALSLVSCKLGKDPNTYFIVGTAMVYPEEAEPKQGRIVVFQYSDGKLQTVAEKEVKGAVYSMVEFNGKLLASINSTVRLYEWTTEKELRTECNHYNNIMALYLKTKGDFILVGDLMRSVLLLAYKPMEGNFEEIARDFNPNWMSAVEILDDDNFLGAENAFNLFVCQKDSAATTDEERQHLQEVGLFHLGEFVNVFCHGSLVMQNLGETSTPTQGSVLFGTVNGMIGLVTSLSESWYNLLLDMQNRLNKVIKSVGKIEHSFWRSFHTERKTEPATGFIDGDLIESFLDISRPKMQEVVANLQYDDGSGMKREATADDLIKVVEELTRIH
T2 sequence (Q13422 whole entry): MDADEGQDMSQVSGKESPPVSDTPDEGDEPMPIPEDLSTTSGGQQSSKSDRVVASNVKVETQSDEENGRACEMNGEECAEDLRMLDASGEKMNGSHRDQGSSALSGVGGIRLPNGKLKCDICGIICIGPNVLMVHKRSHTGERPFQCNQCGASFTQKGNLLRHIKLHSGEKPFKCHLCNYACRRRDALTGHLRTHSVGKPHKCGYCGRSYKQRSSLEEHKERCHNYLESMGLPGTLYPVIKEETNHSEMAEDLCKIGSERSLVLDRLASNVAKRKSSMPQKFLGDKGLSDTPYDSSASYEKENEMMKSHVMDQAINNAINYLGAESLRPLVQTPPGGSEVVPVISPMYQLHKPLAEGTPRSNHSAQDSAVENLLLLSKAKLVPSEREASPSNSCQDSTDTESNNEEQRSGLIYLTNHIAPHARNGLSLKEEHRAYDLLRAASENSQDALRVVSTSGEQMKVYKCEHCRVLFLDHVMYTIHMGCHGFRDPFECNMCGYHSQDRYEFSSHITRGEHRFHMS
T2 sequence (Q96SW2 whole entry): as the sequence (Q96SW2 whole entry) above
T2 sequence (Q16531 whole entry partner): as the sequence (Q16531 whole entry partner) above

For the compound `O=C1CCC(N2Cc3cc(CN[C@H]4CCC[C@H](Cc5ccccc5)C4)ccc3C2=O)C(=O)N1` (relative stereo) [Example 11, 3-(5-((((1,3-trans)-3-benzylcyclohexyl)amino)methyl)-1-oxoisoindolin-2-yl)piperidine-2,6-dione], on IKZF2, the Dmax came out at 68% and the DC50 amounted to 81 nM. Also, at IKZF1, the Dmax stood at 67% and the DC50 came out at 25 nM.
For `O=C1CCC(N2Cc3cc(CN[C@H]4CCC[C@@H](Cc5ccccc5)C4)ccc3C2=O)C(=O)N1` (relative stereo) [Example 12, 3-(5-((((1,3-cis)-3-benzylcyclohexyl)amino)methyl)-1-oxoisoindolin-2-yl)piperidine-2,6-dione], in that order: 96%, 10 nM, 95% and 3 nM.
For `O=C1CCC(N2Cc3cc(CN[C@@H]4CCCC[C@@H]4O)ccc3C2=O)C(=O)N1` (relative stereo) [Example 49, 3-(5-(((cis-2-Hydroxycyclohexyl)amino)methyl)-1-oxoisoindolin-2-yl)piperidine-2,6-dione] the same measures were 70%, 449 nM, 38% and 153 nM.
As to `O=C1CCC(N2Cc3cc(CNC4CCN(Cc5ccccc5)CC4)ccc3C2=O)C(=O)N1` (stereo not shown) [Example 1, 3-(5-(((1-benzylpiperidin-4-yl)amino)methyl)-1-oxoisoindolin-2-yl)piperidine-2,6-dione], at IKZF2, the Dmax was found to be 67% and the DC50 worked out at 342 nM. In addition, at IKZF1, the Dmax came out at 51% and the DC50 is 255 nM.
For `O=C1CCC(N2Cc3cc(CNC4CCN(c5ccccc5)CC4)ccc3C2=O)C(=O)N1` (stereo not shown) [Example 2, 3-(1-oxo-5-(((1-phenylpiperidin-4-yl)amino)methyl)isoindolin-2-yl)piperidine-2,6-dione] the same measures were 83%, 58 nM, 80% and 19 nM.
Regarding `O=C1CCC(N2Cc3cc(CNC4CCN(C(=O)OCc5ccccc5)CC4)ccc3C2=O)C(=O)N1` (stereo not shown) [Example 3, benzyl 4-(((2-(2,6-dioxopiperidin-3-yl)-1-oxoisoindolin-5-yl)methyl)amino)piperidine-1-carboxylate], on IKZF2, the Dmax was 94% and the DC50 came to 39 nM. For the same compound, on IKZF1, the Dmax came out at 95% and the DC50 amounted to 7 nM.
As for `O=C1CCC(N2Cc3cc(CNC4CCN(C(=O)NCc5ccccc5)CC4)ccc3C2=O)C(=O)N1` (stereo not shown) [Example 4, N-benzyl-4-(((2-(2,6-dioxopiperidin-3-yl)-1-oxoisoindolin-5-yl)methyl)amino)piperidine-1-carboxamide], at IKZF2, the Dmax stood at 95% and the DC50 was determined as 1700 nM. Also, on IKZF1, the Dmax is 95% and the DC50 was 68 nM.
For the compound `O=C1CCC(N2Cc3cc(CNC4CCCCC4)ccc3C2=O)C(=O)N1` (stereo not shown) [Example 5, 3-(5-((Cyclohexylamino)methyl)-1-oxoisoindolin-2-yl)piperidine-2,6-dione], the Dmax on IKZF2 was found to be 78%; at IKZF1 it was 38%. For the same compound, the results for the DC50 on IKZF2 and on IKZF1 were 118 nM and 123 nM, respectively.
For `O=C1CCC(N2Cc3cc(CNC4CCOCC4)ccc3C2=O)C(=O)N1` (stereo not shown) [Example 6, 3-(1-oxo-5-(((tetrahydro-2H-pyran-4-yl)amino)methyl)isoindolin-2-yl)piperidine-2,6-dione] the same measures were 78%, 92%, 181 nM and 148 nM.
For `O=C1CCC(N2Cc3cc(CNC4CCC(F)(F)CC4)ccc3C2=O)C(=O)N1` (stereo not shown) [Example 7, 3-(5-(((4,4-difluorocyclohexyl)amino)methyl)-1-oxoisoindolin-2-yl)piperidine-2,6-dione] the same measures were 80%, 70%, 104 nM and 53 nM.
For `O=C1CCC(N2Cc3cc(CNC4CCCC4)ccc3C2=O)C(=O)N1` (stereo not shown) [Example 8] the same measures were 55%, 26%, 143 nM and 131 nM.
As for `CC(C)NCc1ccc2c(c1)CN(C1CCC(=O)NC1=O)C2=O` (stereo not shown) [Example 9, 3-(5-((isopropylamino)methyl)-1-oxoisoindolin-2-yl)piperidine-2,6-dione], at IKZF2, the Dmax was 48% and the DC50 is 738 nM. Also, at IKZF1, the Dmax was 51% and the DC50 stood at 351 nM.
For `O=C1CCC(N2Cc3cc(CNC4CCC(Cc5ccccc5)CC4)ccc3C2=O)C(=O)N1` (stereo not shown) [Example 10, 3-(5-(((4-benzylcyclohexyl)amino)methyl)-1-oxoisoindolin-2-yl)piperidine-2,6-dione] the same measures were 80%, 117 nM, 51% and 121 nM.
For `O=C1CCC(N2Cc3cc(CN[C@H]4CCc5ccccc5C4)ccc3C2=O)C(=O)N1` (stereo partly drawn) [Example 13, 3-(1-oxo-5-((((S)-1,2,3,4-tetrahydronaphthalen-2-yl)amino)methyl)isoindolin-2-yl)piperidine-2,6-dione] the same measures were 73%, 23 nM, 48% and 31 nM.
For `O=C1CCC(N2Cc3cc(CN[C@@H]4CCc5ccccc5C4)ccc3C2=O)C(=O)N1` (stereo partly drawn) [Example 14, 3-(1-oxo-5-((((R)-1,2,3,4-tetrahydronaphthalen-2-yl)amino)methyl)isoindolin-2-yl)piperidine-2,6-dione] the same measures were 43%, 48 nM, 35% and 23 nM.
As for `O=C1CCC(N2Cc3cc(CNC45CC(C4)C5)ccc3C2=O)C(=O)N1` (stereo not shown) [Example 15, 3-(5-((bicyclo[1.1.1]pentan-1-ylamino)methyl)-1-oxoisoindolin-2-yl)piperidine-2,6-dione], on IKZF2, the Dmax was 29%. Moreover, the DC50 on IKZF2 was 1800 nM; on IKZF1, > 10000 nM.
Turning to `C[C@@H](NCc1ccc2c(c1)CN(C1CCC(=O)NC1=O)C2=O)c1ccccc1` (stereo partly drawn) [Example 16, 3-(1-oxo-5-((((R)-1-phenylethyl)amino)methyl)isoindolin-2-yl)piperidine-2,6-dione], at IKZF2, the Dmax was determined as 54% and the DC50 worked out at 260 nM. On IKZF1, the Dmax turned out to be 71% and the DC50 was found to be 41 nM.
For `O=C1CCC(N2Cc3cc(CN[C@H]4CCOc5ccccc54)ccc3C2=O)C(=O)N1` (stereo partly drawn) [Example 17, 3-(5-((((S)-chroman-4-yl)amino)methyl)-1-oxoisoindolin-2-yl)piperidine-2,6-dione] the same measures were 48%, 230 nM, 65% and 31 nM.
Regarding `CN(Cc1ccc2c(c1)CN(C1CCC(=O)NC1=O)C2=O)C1CCN(Cc2ccccc2)CC1` (stereo not shown) [Example 18, 3-(5-(((1-benzylpiperidin-4-yl)(methyl)amino)methyl)-1-oxoisoindolin-2-yl)piperidine-2,6-dione], at IKZF2, the Dmax came to 21%. Besides, the DC50 was 328 nM at IKZF2 and > 10000 nM on IKZF1.
For the compound `O=C1CCC(N2Cc3cc(CN[C@H]4CCN(Cc5ccccc5)C4)ccc3C2=O)C(=O)N1` (stereo partly drawn) [Example 19, 3-(5-((((S)-1-benzylpyrrolidin-3-yl)amino)methyl)-1-oxoisoindolin-2-yl)piperidine-2,6-dione], at IKZF2, the Dmax came out at 52% and the DC50 came to 442 nM. Also, at IKZF1, the Dmax is 46% and the DC50 worked out at 122 nM.
For `O=C1CCC(N2Cc3cc(CN[C@@H]4CCCN(Cc5ccccc5)C4)ccc3C2=O)C(=O)N1` (stereo partly drawn) [Example 20, 3-(5-((((R)-1-benzylpiperidin-3-yl)amino)methyl)-1-oxoisoindolin-2-yl)piperidine-2,6-dione], in that order: 97%, 32 nM, 95% and 7 nM.

The values above are taken from US20240124412A1, “IKAROS ZINC FINGER FAMILY DEGRADERS AND USES THEREOF” (Gilead Sciences, Inc., priority 2021, published 2024).
